Legend:
Assay in all cases: relative viability (nuclei count vs DMSO), 5 days (fraction); higher = more cells survive
ALW-II-49-7 + Dasatinib = compound: Cc1ccc(C(=O)Nc2cccc(C(F)(F)F)c2)cc1Nc1cncc(C(N)=O)c1 [ALW-II-49-7] + Cc1nc(Nc2ncc(C(=O)Nc3c(C)cccc3Cl)s2)cc(N2CCN(CCO)CC2)n1 [Dasatinib] (partner 0.075 µM)
How it was run: (§1)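 Medians of duplicate plates are given as relative viability. That measure is the nuclei count in treated wells divided by the count in vehicle wells. Counts were taken on 4× images of lung cancer cell lines in 1536-well plates, 5 days after pin-tool dosing the day after seeding with one drug alone or a fixed anchor-drug dose plus five library-drug doses (not always all listed) in √10 steps.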

ALW-II-49-7 + Navitoclax = compound: Cc1ccc(C(=O)Nc2cccc(C(F)(F)F)c2)cc1Nc1cncc(C(N)=O)c1 [ALW-II-49-7] + CC1(C)CCC(c2ccc(Cl)cc2)=C(CN2CCN(c3ccc(C(=O)NS(=O)(=O)c4ccc(N[C@H](CCN5CCOCC5)CSc5ccccc5)c(S(=O)(=O)C(F)(F)F)c4)cc3)CC2)C1 [Navitoclax] (partner 0.5 µM)
How it was run: as §1

XMD13-2 + Olaparib = compound: C1CC1C(=O)NC2=NNC3=C2C=CC(=C3)C4=CC(=CC=C4)C(=O)NC5CC5 [XMD13-2] + O=C(c1cc(Cc2n[nH]c(=O)c3ccccc23)ccc1F)N1CCN(C(=O)C2CC2)CC1 [Olaparib] (partner 8 µM)
How it was run: as §1

XMD13-2 + Pemetrexed = compound: C1CC1C(=O)NC2=NNC3=C2C=CC(=C3)C4=CC(=CC=C4)C(=O)NC5CC5 [XMD13-2] + Nc1nc2[nH]cc(CCc3ccc(C(=O)N[C@@H](CCC(=O)O)C(=O)O)cc3)c2c(=O)[nH]1 [Pemetrexed] (partner 0.2 µM)
How it was run: as §1

Cell Line	relative viability (ALW-II-49-7 + Dasatinib; first compound 0.08 µM)	relative viability (ALW-II-49-7 + Dasatinib; first compound 0.253 µM)	relative viability (ALW-II-49-7 + Dasatinib; first compound 0.8 µM)	relative viability (ALW-II-49-7 + Dasatinib; first compound 2.53 µM)	relative viability (ALW-II-49-7 + Dasatinib; first compound 8 µM)	relative viability (ALW-II-49-7 + Navitoclax; first compound 0.08 µM)	relative viability (ALW-II-49-7 + Navitoclax; first compound 0.253 µM)	relative viability (ALW-II-49-7 + Navitoclax; first compound 0.8 µM)	relative viability (ALW-II-49-7 + Navitoclax; first compound 2.53 µM)	relative viability (ALW-II-49-7 + Navitoclax; first compound 8 µM)	relative viability (XMD13-2 + Olaparib; first compound 0.05 µM)	relative viability (XMD13-2 + Olaparib; first compound 0.1581 µM)	relative viability (XMD13-2 + Olaparib; first compound 0.5 µM)	relative viability (XMD13-2 + Olaparib; first compound 1.581 µM)	relative viability (XMD13-2 + Olaparib; first compound 5 µM)	relative viability (XMD13-2 + Pemetrexed; first compound 0.05 µM)	relative viability (XMD13-2 + Pemetrexed; first compound 0.1581 µM)	relative viability (XMD13-2 + Pemetrexed; first compound 0.5 µM)	relative viability (XMD13-2 + Pemetrexed; first compound 1.581 µM)	relative viability (XMD13-2 + Pemetrexed; first compound 5 µM)
NCI-H727	0.352	0.324	0.193	0.412	0.446	0.611	0.447	0.482	0.53	0.552	0.679	0.711	0.683	0.74	0.647					
NCI-H358	0.151	0.159	0.173	0.192	0.286						0.72	0.618	0.667	0.718	0.61	0.171	0.168	0.175	0.179	0.166
NCI-H1437	0.414	0.404	0.425	0.309	0.333	1.11	1.17		1.07	1.06	0.61	0.617	0.64	0.64	0.634	0.336	0.326	0.343	0.323	0.329
NCI-H441	0.497	0.475	0.684	0.674	0.459	0.591	0.61	0.673	0.572	0.745	0.545	0.578	0.534	0.477	0.495	0.298	0.24	0.233	0.234	0.263
EMC-BAC-2	0.311	0.324	0.284	0.293	0.29	0.972	1.19	1.18	1.01	1.07	0.575	0.526	0.499	0.465	0.439	0.42	0.451	0.431	0.457	0.494
NCI-H647	0.153	0.131	0.15	0.161	0.193	1.03	1.3		0.479	0.716	0.622	0.435	0.545	0.602	0.234	0.173	0.168	0.179	0.164	0.134
CAL-12T	0.433	0.223	0.277	0.372	0.266	1.15	1.08	1.2	1.42	1.17	0.694	0.799	0.708	0.695	0.697	1.27	1.1	1.25	1.11	1.23
NCI-H1792	0.896	0.757	0.876	0.355	0.732	0.351	0.438	0.725	0.654	0.327	0.628	0.385	0.428	0.383	0.573	1.16	0.694	0.922	0.75	1.14
H3255	0.436	0.234	0.431	0.322	0.348	0.581	0.541	0.375	0.313	0.538	0.635	0.634	0.584	0.519	0.558	0.618	0.546	0.579	0.611	0.625
HCC-78	0.475	0.466		0.361	0.383	1.01	0.682	0.787	0.744	0.641	0.895	0.781	0.812	0.667	0.733	0.921	0.918	0.883	0.962	0.964
EBC-1						0.403	0.377	0.348	0.321	0.277	0.768	0.78	0.837	0.545	0.277					
NCI-H2405	0.207	0.216	0.219	0.208	0.173	0.761	0.974	0.779	0.241	0.735	0.931	0.874	0.931		0.843	1.18	1.02	1.11		1.07
A549						1.2	1.21	1.33	1.15	1.21	0.415	0.185	0.453	0.358	0.437					
NCI-H3122	0.83	0.81	0.737	0.891	0.834	1.06	1.06	1.07	1.09	1.05	0.726	0.649	0.697	0.702	0.629	0.193	0.195	0.199	0.199	0.195
NCI-H1563	0.442	0.466	0.441	0.477	0.486											0.76	0.806	0.741	0.75	0.913
HCC-44						1.12	0.958	0.988	0.891	1.06	1.01	0.983	0.974	1.03	0.986	0.573	0.536	0.67	0.727	0.631
PC-3 [JPC-3]	0.827	0.916	0.929	0.951	0.854	0.693	0.891	0.757	0.816	0.82	1.16	1.12	1.12		1.05	1.23	1.04	1.14		1.12
NCI-H1993	0.492	0.533	0.423	0.545	0.666	0.85	0.927	0.904	0.785	1.08	1.1	0.924	0.507	0.813	0.952	0.62	0.619	0.613	0.643	0.555
LOU-NH91	0.544	0.588	0.521	0.504	0.414	0.642	0.733	0.623	0.345	0.604	0.976	0.958	0.97	0.869	0.944	0.319	0.409	0.392	0.435	0.371
SW 900	0.607	0.565	0.559	0.565	0.478						0.772	0.853	0.922	0.753	0.806	0.485	0.502	0.508	0.493	0.529

Cell Line	relative viability (ALW-II-49-7 + Dasatinib; first compound 0.08 µM)	relative viability (ALW-II-49-7 + Dasatinib; first compound 0.253 µM)	relative viability (ALW-II-49-7 + Dasatinib; first compound 0.8 µM)	relative viability (ALW-II-49-7 + Dasatinib; first compound 2.53 µM)	relative viability (ALW-II-49-7 + Dasatinib; first compound 8 µM)	relative viability (ALW-II-49-7 + Navitoclax; first compound 0.08 µM)	relative viability (ALW-II-49-7 + Navitoclax; first compound 0.253 µM)	relative viability (ALW-II-49-7 + Navitoclax; first compound 0.8 µM)	relative viability (ALW-II-49-7 + Navitoclax; first compound 2.53 µM)	relative viability (ALW-II-49-7 + Navitoclax; first compound 8 µM)	relative viability (XMD13-2 + Olaparib; first compound 0.05 µM)	relative viability (XMD13-2 + Olaparib; first compound 0.1581 µM)	relative viability (XMD13-2 + Olaparib; first compound 0.5 µM)	relative viability (XMD13-2 + Olaparib; first compound 1.581 µM)	relative viability (XMD13-2 + Olaparib; first compound 5 µM)	relative viability (XMD13-2 + Pemetrexed; first compound 0.05 µM)	relative viability (XMD13-2 + Pemetrexed; first compound 0.1581 µM)	relative viability (XMD13-2 + Pemetrexed; first compound 0.5 µM)	relative viability (XMD13-2 + Pemetrexed; first compound 1.581 µM)	relative viability (XMD13-2 + Pemetrexed; first compound 5 µM)
LCLC-103H	0.392	0.429	0.393	0.419	0.411						0.764	0.797	0.776	0.846	0.805	0.421	0.473	0.471	0.483	0.461
NCI-H1915	0.372	0.349	0.339	0.326	0.292	0.771	0.823	0.733	0.764	0.705	0.273	0.253	0.287	0.254	0.269	0.504	0.509	0.544	0.504	0.513
IA-LM						0.84	0.551	0.689	0.213	0.0967	0.832	0.903	0.787	0.707	0.635					
NCI-H1734	0.483	0.414	0.485	0.463	0.332	0.778	0.954	0.822	0.634	0.665	0.769	0.628	0.616	0.594	0.523	0.41	0.422	0.398	0.412	0.386
SK-MES-1	0.353	0.351	0.296	0.33	0.222	1.03	1.34	1.15	0.961	0.647	0.906	0.646	0.804	0.73	0.761	1.01	0.894	0.911	0.909	0.864
Calu-6						0.814	0.84	0.731	0.591	0.636	0.615	0.586		0.605	0.512					
HCC-15	0.667	0.614	0.692	0.684	0.664	0.768	0.772	0.695	0.824	0.729	0.706	0.66	0.785	0.669	0.661	0.237	0.204	0.218	0.224	0.214
SK-LU-1	0.17	0.207	0.206	0.175	0.197	1.09	0.769	1.2	0.585	0.474	0.499	0.444	0.514	0.444	0.422	0.997	0.964	1.01	0.977	0.948
NCI-H2023	0.547	0.547	0.603	0.573	0.437	0.925	1.1	1.03	1.01	1.02	0.567	0.472	0.504	0.492	0.507	0.261	0.206	0.195	0.242	0.246
HCC-366	0.694	0.75	0.591	0.528	0.7	1.04	1.29	1.08	1.11	1.11	0.448	0.328	0.444	0.355	0.358	0.147	0.175	0.164	0.172	0.187
NCI-H661	0.782	1.06	0.965	0.832	0.767						0.728	0.671	0.739	0.767	0.66	0.936	0.927	0.873	0.916	0.838
NCI-H2342	0.303	0.299	0.327	0.3	0.314						0.424	0.383	0.386	0.403	0.463	0.806	0.711	0.772	0.72	0.775
NCI-H1299						1.03	1.08	1.05	1.07	0.968	0.953	0.991	0.959	0.972	1					
NCI-H522	0.979	0.81	1.05	0.772	0.987						0.632	0.7	0.618	0.473	0.65	1.24	1.05	1.1	1.08	0.886
NCI-H1623	0.465	0.531	0.618	0.532	0.479															
NCI-H1648											0.983		0.841	0.762	0.509	0.702		0.726	0.705	0.719
NCI-H1703						1.02	1.08	0.964	0.406	0.291	0.503	0.417	0.38		0.372					
ABC-1	0.501	0.627	0.506	0.656	0.483						0.925	0.869	1.08		0.688					
NCI-H650	0.42	0.518	0.421	0.482	0.341						0.379	0.379	0.424	0.462	0.356	0.938	0.995	1.04	0.772	0.958

— the supplement of paper PMC10307832
